Broadly, the Ki is a measure of affinity in units of concentration, obtained from inhibition or displacement. Usually EC50 stands for the concentration at which the effect is half-maximal. The Emax is the size of the effect at its maximum, as opposed to the concentration needed.

Entries after “also recorded” stand apart in the source; their conditions may differ. Read-outs that look alike come from different tables or passages of the source.

Here are results for 7 compounds from patent US8546377B2 (AbbVie Inc., priority 2009, dated 2013).

One assay deals with T1, h-5-HT6 receptor (Homo sapiens, UniProt P50406).
T1 construct: expressed in transfected cells; host or cells: HEK293 cells (membrane preparation)
Put plainly: Human 5-HT6 receptor radioligand binding assay ([3H]-LSD, HEK293 membranes). The protocol: (iv) Human 5-HT6 Receptor Radioligand Binding Assay
Preparation of Membranes by Ultrasonic Treatment and Differential Centrifugation
Cells from stable clonal cell lines expressing the corresponding receptor (5-HT6) were washed with PBS (without Ca^++, Mg^++) and harvested in PBS with 0.02% EDTA. The cells were collected by centrifugation at 500 g for 10 minutes at 4° C., washed with PBS and centrifuged (500 g, 10 minutes at 4° C.). The pellets were stored at −80° C. until use. For membrane preparation, the thawed cell pellet was resuspended in ice-cold sucrose buffer (0.25 M sucrose, 10 mM HEPES (pH 7.4), 1 mM phenylmethylsulfonyl fluoride (PMSF) in DMSO, 5 μg/ml Pepstatin-A, 3 mM EDTA, 0.025% Bacitracin) and homogenized with a Branson Sonifier W-250 (Settings: Timer 4; Output Control 3; Duty Cycle constant; 2 to 3 cycles). Cell disruption was checked with the aid of a microscope. Remaining unbroken cells were pelleted at 1,000 g for 10 minutes at 4° C. The sucrose buffer supernatant was then centrifuged at 60,000 g for 1 hour at 4° C. (Beckman Ultrazentrifuge XL 80). The pellet was resuspended in 30 mL of ice-cold Tris buffer (20 mM TRIS (pH 7.4), 5 μg/mL Pepstatin A, 0.1 mM PMSF, 3 mM EDTA) by pipetting through a 10 mL serological pipet and centrifuged for 1 hour at 4° C. at 60,000 g. A final resuspension was performed in a small volume of ice-cold Tris buffer (see above) by pressing through a serological pipet followed by ultrasonic treatment with a Branson Sonifier W-250 (Settings: Timer 1; Output Control 3; Duty Cycle constant; 1 cycle). Protein concentration was determined (BCA-Kit; Pierce) and aliquots stored at −80° C. or in liquid nitrogen for long-term storage.
Receptor Binding Experiments
All receptor binding experiments were carried out in the corresponding assay buffer in a total volume of 200 μL in the presence of various concentrations of test compound (10^−5 M to 10^−9 M, tenfold serial dilution, duplicate determinations). The assays were terminated by filtration on polyethylenimine (PEI 0.1% or 0.3%) presoaked Packard Unifilter Plates (GF/C or GF/B) with a Tomtec MachIII U 96 well-plate harvester. After the plates had been dried for 2 hours at 55° C. in a drying chamber scintillation cocktail (BetaPlate Scint; PerkinElmer) was added. Radioactivity was measured in a Microbeta Trilux two hours after the addition of the scintillation mixture.
5-HT6 Receptor Binding Assay
HEK293 cells stably expressing the h-5-HT6 receptor (NCBI Reference Sequence XM 001435) were cultured in RPMI1640 medium supplemented with 25 mM HEPES, 10% fetal calf serum and 1-2 mM glutamine. The membrane preparation was performed as described above. […] On the day of the assay, the membranes were thawed, diluted in assay buffer (50 mM Tris-HCl, 5 mM CaCl2, 0.1% ascorbic acid, 10 μM pargyline, pH 7.4) to a concentration of 8 μg protein/assay and homogenized by gentle vortexing. […] Non-specific binding was defined with 1 μM methiothepin. The binding reaction was carried out for 3.5 hours at room temperature. During the incubation, the plates were shaken on a plate shaker at 100 rpm and terminated by filtration on Packard Unifilter GF/C (0.1% PEI) plates, followed by 2 wash cycles with ice-cold 50 mM Tris-HCl, 5 mM CaCl2.
Data derived from liquid scintillation counting were analyzed by iterative non-linear regression analysis with the use of the Statistical Analysis System (SAS): a program similar to “LIGAND” as described by Munson and Rodbard (Anal. Biochem. 1980, 107, 220-239). Fitting was performed according to formulae described by Feldman (Anal. Biochem. 1972, 48, 317-338). IC50, nH and Ki values were expressed as geometrical mean.
The results of the receptor binding studies are expressed as receptor binding constants Ki(5-HT6) as described herein before, and given in Table 5.

Assay [1] concerns the target T2, 5HT2C receptors (Homo sapiens, UniProt P28335).
T2 sequence (P28335 33-458): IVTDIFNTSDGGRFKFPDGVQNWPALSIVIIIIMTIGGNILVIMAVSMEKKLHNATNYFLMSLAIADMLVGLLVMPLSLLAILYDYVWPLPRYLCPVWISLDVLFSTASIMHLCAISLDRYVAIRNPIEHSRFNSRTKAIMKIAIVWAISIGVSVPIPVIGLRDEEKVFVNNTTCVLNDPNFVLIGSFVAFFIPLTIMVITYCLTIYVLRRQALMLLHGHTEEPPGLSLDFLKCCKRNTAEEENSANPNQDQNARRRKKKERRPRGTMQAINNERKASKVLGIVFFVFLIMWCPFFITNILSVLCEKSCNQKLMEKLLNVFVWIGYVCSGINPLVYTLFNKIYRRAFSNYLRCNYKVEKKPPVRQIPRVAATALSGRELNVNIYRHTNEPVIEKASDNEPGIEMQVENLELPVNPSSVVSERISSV
Put plainly: Human 5-HT2C functional assay in CHO-K1 cells (calcium flux, FLIPR). The assay is classed as cell-based. Also on record: expressed in transfected cells; host or cells: CHO-K1 cells. The settings on record: for Emax: percentage relative to the effect of serotonin. A digest of the protocol: (§1)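 Frozen CHO-K1 cells over-expressing receptor, serum-starved overnight, loaded with Ca4 dye plus 2.5 mM probenecid for 60 min at room temperature. FLIPR fluorescence (ex 480/em 530 nm, 25° C) recorded 3 min after compound addition; 6-point 1:10 series from 10 μM, 0.2% DMSO. Response normalized to serotonin, 4-parameter fit gives EC50; Emax as % of serotonin.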
On the technique in general: Calcium assays in cells follow changes in intracellular calcium, usually with a dye or a luminescent sensor.

In the next assay the target is T3, 5HT2B receptors (Homo sapiens, UniProt P41595).
T3 construct: expressed in transfected cells; host or cells: CHO-K1 cells
Kind of assay: Human 5-HT2B functional assay in CHO-K1 cells (calcium flux, FLIPR). The assay is classed as cell-based. The settings on record: for Emax: CHO-K1 cells, percentage relative to the effect of serotonin, read-out: Emax (%), 5-HT2B Agonist Activity. A digest of the protocol: as §1

Assay [2] deals with T4, human serotonin 5-HT2c receptor (Homo sapiens, UniProt P28335).
T4 construct: expressed in transfected cells; host or cells: CHO cells (membrane homogenate)
T4 sequence (P28335 33-458): T2 sequence (P28335 33-458)
Put plainly: Human 5-HT2C receptor radioligand binding assay (agonist site, [125I](±)DOI). The settings on record: membranes of transfected CHO cells, 0.2 nM [125I](±)DOI, 15 minutes at 37° C. A digest of the protocol:
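Affinity for the agonist site measured by radioligand binding in transfected CHO cells expressing the human receptor, using [125I](±)DOI.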

Assay [3] has as its target T2, 5HT2C receptors. Put plainly: Human 5-HT2C functional assay in 1321N1 cells (intracellular calcium, FLIPR). In kind it is cell-based. Also on record: expressed in transfected cells; host or cells: 1321N1 cells. The following applies: for EC50: 1321N1 cells stably transfected, maximum calcium response, read-out: EC50 (μM), 5-HT2c Agonist Activity. How it is done:
(ii) Human 5-HT2C Functional Assay in 1321N1 Cells
Functional activity was determined by testing the effect of the compounds on intracellular calcium levels in 1321N1 cells stably transfected with the human 5-HT2C receptor. Cells were seeded into 96-well plates at 50,000 cells/well and grown overnight in tissue culture medium (DMEM with Glutamax I (Invitrogen), containing 10% dFCS, 50 μg/mL Gentamicin, 400 μg/mL Geneticin) at 37° C. and 7% CO2. Growth medium was replaced by medium without dFCS for overnight incubation. Cells were loaded with a fluorescent calcium-sensitive dye in the presence of 1% probenicid according to the manufacturer's protocol (Fluo4 AM, Molecular Devices). Serial compound dilutions (final concentrations 10^−10 to 10^−5 M) were added to the cells either alone or in the presence of serotonin (10^−9 M) and the maximum calcium response was determined using a FLIPR instrument (Molecular Devices). Concentration-response curves were fitted using a four-parameter logistic equation (GraphPad Prism). The concentration at which the compound exerts half its maximal effect is named the ‘effective concentration 50’ or ‘EC50’ and is listed in Table 2.
Emax is the maximum functional response or efficacy expressed as a percentage relative to the effect of serotonin.

Assay [4] deals with AMP-induced hyperactivity. Kind of assay: d-Amphetamine-induced hyperlocomotion in mice. The settings on record: test compound ip 30 minutes before d-amphetamine 2.0 mg/kg sc, FIG. 1. The assay is classed as in vivo. An excerpt:
(v) Assessment of Effects on Psychostimulant-Induced Hyperlocomotion in Mice
In both humans and experimental animals amphetamine profoundly affects motor activity, sensorimotor function, sleep, attention, aggressive and sexual behaviors, learning and memory, operant behaviors, appetite and food intake. In addition, amphetamine induces psychotic reactions in normal individuals and exacerbates symptoms of schizophrenia in patients. In experimental animals several distinct behaviors are considered to be correlates of amphetamine psychosis. For example, amphetamine-induced hyperactivity in rodents is believed to model the psychotic symptoms of schizophrenia. Reversal of these behaviors is used to predict potential antipsychotic activity of drugs in pre-clinical studies.
Male NMRI mice (5-week old, Janvier, France) or C57BL/6J mice (6-week old, Janvier, France) were group housed and allowed ad-libitum access to food and water. A 12 hour light/dark cycle was imposed with lights-on period between 0530 and 1730 hours. All testing occurred between 700 and 1300 hours. All procedures were approved by Abbott Institutional Animal Care and Use Committee (USA) or Animal Welfare Officer (Germany) and were conducted in accordance with the National Institutes of Health Guide for Care and Use of Laboratory Animals guidelines and applicable national laws in the facilities accredited by the Association for the Assessment and Accreditation of Laboratory Animal Care.
On the day of experiment, animals were brought from the animal facility into the experimental room and were allowed to acclimatize for at least 30 minutes. Animals were then placed in the test cages for a habituation period of 60 minutes. The animals were then injected ip with the test compound and returned to the test cage. 30 Minutes later, the mice were injected with d-amphetamine (2.0 mg/kg, AMP, Sigma, #A5880, sc) or phencyclidine (2.0 mg/kg, PCP, Sigma, #P3029, sc), and returned to the test cages for 90 minutes. […] The analyzed data were: fine movements, ambulations and total movements (fine+ambulations). […]

Where [5] appears, read: HEK293 membranes, 1 nM [3H]-lysergic acid diethylamide, 3.5 hours at room temperature, read-out: Ki (μM), 5-HT6 Agonist Site Radioligand Binding.
The mark [6] stands for this setting: CHO-K1 cells over-expressing 5HT2C, calcium flux, read-out: EC50 (μM), 5-HT2c Agonist Activity.
Setting [7] is: CHO-K1 cells over-expressing 5HT2B, calcium flux, read-out: EC50 (μM), 5-HT2B Agonist Activity.
[8] abbreviates: CHO-K1, read-out: Emax (%), 5-HT2c Agonist Activity, CHO-K1 cells.

T1 sequence (P50406 whole entry): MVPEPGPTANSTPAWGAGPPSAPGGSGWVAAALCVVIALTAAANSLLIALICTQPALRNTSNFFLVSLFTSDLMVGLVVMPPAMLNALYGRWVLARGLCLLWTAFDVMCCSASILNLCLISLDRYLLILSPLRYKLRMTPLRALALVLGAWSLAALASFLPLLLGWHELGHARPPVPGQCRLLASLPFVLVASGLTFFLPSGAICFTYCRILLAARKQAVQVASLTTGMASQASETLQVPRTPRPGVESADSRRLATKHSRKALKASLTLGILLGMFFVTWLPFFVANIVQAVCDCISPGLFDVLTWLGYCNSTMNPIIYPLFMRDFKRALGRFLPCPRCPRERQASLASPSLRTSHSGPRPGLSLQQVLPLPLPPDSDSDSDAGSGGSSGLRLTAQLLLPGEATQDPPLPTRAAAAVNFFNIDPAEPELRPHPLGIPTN
T3 sequence (P41595 whole entry): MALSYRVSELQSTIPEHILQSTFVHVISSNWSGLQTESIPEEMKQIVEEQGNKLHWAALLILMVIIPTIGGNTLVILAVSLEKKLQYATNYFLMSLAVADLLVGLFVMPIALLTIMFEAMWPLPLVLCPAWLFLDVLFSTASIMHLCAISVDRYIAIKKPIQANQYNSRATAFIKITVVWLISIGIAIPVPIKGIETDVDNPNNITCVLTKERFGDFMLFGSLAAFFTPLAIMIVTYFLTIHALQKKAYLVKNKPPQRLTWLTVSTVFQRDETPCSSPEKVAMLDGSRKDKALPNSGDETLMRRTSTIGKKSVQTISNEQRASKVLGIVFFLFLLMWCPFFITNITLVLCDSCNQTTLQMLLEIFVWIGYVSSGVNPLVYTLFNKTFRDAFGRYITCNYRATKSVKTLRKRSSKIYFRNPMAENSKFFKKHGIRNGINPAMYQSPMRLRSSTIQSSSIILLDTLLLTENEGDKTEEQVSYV

In the case of `O=C1CC2CNCCN2c2ccc(NS(=O)(=O)c3ccccc3)cc2N1` (stereo not shown) [Example 76, N-(6-oxo-1,2,3,4,4a,5,6,7-octahydropyrazino[1,2-a][1,5]benzodiazepin-9-yl)benzenesulfonamide], the Ki at h-5-HT6 receptor (setting [5]) came out at 0.025 µM. In addition, at 5HT2C receptors [1] (setting [6]), the EC50 was over 100 µM.

In the case of `O=C1NCC2CNCCN2c2ccc(NS(=O)(=O)c3cccc(C(F)(F)F)c3)cc21` (stereo not shown) [Example 184, N-(7-oxo-1,2,3,4,4a,5,6,7-octahydropyrazino[1,2-a][1,4]benzodiazepin-9-yl)-3-(trifluoromethyl)benzenesulfonamide], the Ki on h-5-HT6 receptor (setting [5]) was 0.008 µM. Further, the EC50 at 5HT2C receptors [1] (setting [6]) and at 5HT2B receptors (setting [7]) was over 10 µM in each case.

With `O=C1CC2CNCCN2c2ccc(S(=O)(=O)c3ccccc3)cc2N1` (stereo not shown) [Example 112, 9-(phenylsulfonyl)-1,2,3,4,4a,5-hexahydropyrazino[1,2-a][1,5]benzodiazepin-6(7H)-one], the Ki at h-5-HT6 receptor (setting [5]) is 0.017 µM. In addition, the EC50 at 5HT2C receptors [1] (setting [6]) was over 10 µM; at 5HT2B receptors (setting [7]), 0.9 µM. In addition, the Emax on 5HT2B receptors worked out at 90%.

Turning to `Cc1cccc2c1OCC[C@H]1CNCCN21` [Example 226, (4aS)-8-methyl-2,3,4,4a,5,6-hexahydro-1H-pyrazino[2,1-d][1,5]benzoxazepine], the Ki at h-5-HT6 receptor came out at 2.06 µM. Further, the EC50 is 0.0008 µM at 5HT2C receptors [1] and over 10 µM on 5HT2B receptors. The maximal response (Emax) on 5HT2C receptors [1] (setting [8]) came to 90%.

On h-5-HT6 receptor, `CN1CCN2c3cccc(F)c3OCC[C@H]2C1` [Example 231, (4aS)-8-fluoro-3-methyl-2,3,4,4a,5,6-hexahydro-1H-pyrazino[2,1-d][1,5]benzoxazepine] came in with a Ki of 0.855 µM. For the same compound, the figures for the EC50 at 5HT2C receptors [1] and at 5HT2B receptors were 0.004 µM and over 10 µM, respectively. Besides, the Emax at 5HT2C receptors [1] (setting [8]) was determined as 85%.

For `O=C1NCC2CN(Cc3ccccc3)CCN2c2ccc(NS(=O)(=O)c3ccccc3)cc21` (stereo not shown) [Example 47, N-(3-benzyl-7-oxo-1,2,3,4,4a,5,6,7-octahydropyrazino[1,2-a][1,4]benzodiazepin-9-yl)benzenesulfonamide], the Ki at h-5-HT6 receptor (setting [5]) was 0.821 µM; in assay [2], 33 µM. The EC50 at 5HT2C receptors [3] is over 10 µM.

With `O=C1C[C@H]2CNCCN2c2cc(CCc3ccccc3)ccc2N1` [Example 42, (4aS)-10-(2-phenylethyl)-1,2,3,4,4a,5-hexahydropyrazino[1,2-a][1,5]benzodiazepin-6(7H)-one], affinity in assay [2] was put at a Ki of 0.00071 µM. In addition, the EC50 at 5HT2C receptors [1] (setting [6]) was found to be 0.0004 µM; on 5HT2C receptors [3], 0.0011 µM; at 5HT2B receptors (setting [7]), 5 µM. Moreover, the maximal response (Emax) was over 120% at 5HT2C receptors [1] (CHO-K1 cells, read-out: Emax (%), 5-HT2c Agonist Activity); 95% at 5HT2C receptors [3] (1321N1 cells, percentage relative to the effect of serotonin, read-out: Emax (%), 5-HT2c Agonist Activity); 55% on 5HT2B receptors. Also, in assay [4], the AMP-induced hyperactivity entry is “attenuated AMP-induced hyperactivity significantly and in a dose dependent manner; also recorded: concentration-dependent effects of Example 42 attenuating the affect of d-amphetamine”.
